According to PubChem BioAssay (NCI):
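A five-concentration, 48-hour dose response in 96-well plates underlies each endpoint, interpolated linearly between surrounding concentrations. GI50 is the concentration that inhibits growth by half. TGI: concentration producing complete growth inhibition.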

How the values were obtained:
Experiment in all cases: NCI anticancer screen, dose series, 48 h
[1] = test system: MDA-MB-468 breast
[2] = test system: SNB-19 CNS
[3] = test system: NCI/ADR-RES ovarian
[4] = test system: RXF 393 renal
[5] = test system: SW-620 colon
[6] = test system: SK-OV-3 ovarian
[7] = test system: MDA-MB-231 breast
[8] = test system: HOP-92 NSCLC
[9] = test system: COLO 205 colon
[10] = test system: NCI-H226 lung
[11] = test system: HL-60(TB) leukemia
[12] = test system: EKVX NSCLC
[13] = test system: LOX IMVI melanoma
[14] = test system: U251 CNS
[15] = test system: OVCAR-3 ovarian
[16] = test system: CCRF-CEM leukemia
[17] = test system: MOLT-4 leukemia
[18] = test system: CAKI-1 renal
[19] = test system: MCF7 breast
[20] = test system: SN12C renal
[21] = test system: UACC-62 melanoma
[22] = test system: SK-MEL-5 melanoma
[23] = test system: M14 melanoma
[24] = test system: ACHN renal
[25] = test system: 786-0 renal
[26] = test system: DU-145 prostate
[27] = test system: A549 NSCLC
[28] = test system: OVCAR-4 ovarian
[29] = test system: NCI-H460 lung
[30] = test system: SK-MEL-2 melanoma
[31] = test system: UO-31 renal
[32] = test system: PC-3 prostate
[33] = test system: K-562 leukemia
[34] = test system: SF-268 CNS
[35] = test system: HCT-15 colon
[36] = test system: NCI-H23 lung
[37] = test system: NCI-H522 lung
[38] = test system: KM12 colon
[39] = test system: A498 renal
[40] = test system: SK-MEL-28 melanoma
[41] = test system: HT29 colon
[42] = test system: OVCAR-5 ovarian
[43] = test system: UACC-257 melanoma
[44] = test system: HS 578T breast
[45] = test system: BT-549 breast
[46] = test system: OVCAR-8 ovarian
[47] = test system: IGROV1 ovarian
[48] = test system: MDA-MB-435
[49] = test system: HCT-116 colon
[50] = test system: HCC-2998 colon
[51] = test system: SR leukemia
[52] = test system: SF-539 CNS
[53] = test system: SF-295 CNS
[54] = test system: MALME-3M melanoma
[55] = test system: RPMI-8226 leukemia
[56] = test system: TK-10 renal
[57] = test system: SNB-75 CNS
[58] = test system: HOP-62 NSCLC

With `C/C(=C(/c1ccc(O)cc1)c1ccc(OCCN2CCCC2)cc1)c1ccc(Cl)cc1` the GI50 [1] was 1.88 µM and the TGI [1] was 4.11 µM.

`Nc1ncnc2c1nnn2C1OC(CO)C(O)C1O` (stereo not given) gave a GI50 [1] of 0.234 µM and a TGI [1] of 1.26 µM.

Compound `Cn1cc(-c2nc(N)nnc2-c2c[nH]c3ccc(F)cc23)c2cc(Br)cnc21` has a GI50 [2] of 0.139 µM, a TGI [2] of 12.7 µM and a GI50 [3] of 0.155 µM. For the same compound, the TGI [3] was 1.17 µM, the GI50 [4] was 0.0471 µM and the TGI [4] was 0.236 µM. It also gave a GI50 [5] of 0.0487 µM, a TGI [5] of 15.2 µM and a GI50 [6] of 0.126 µM. It also gave a TGI [6] of 19.6 µM, a GI50 [7] of 0.121 µM and a TGI [7] of 8.26 µM. The GI50 [8] was 5.93 µM, the TGI [8] was 30.7 µM and the GI50 [9] was 0.0737 µM. The TGI [9] was 0.886 µM, the GI50 [10] was 0.109 µM and the TGI [10] was 12.7 µM. It also gave a GI50 [11] of 0.039 µM, a TGI [11] of 0.29 µM and a GI50 [12] of 0.279 µM. The TGI [12] was 17.7 µM, the GI50 [13] was 0.0635 µM and the TGI [13] was 14.9 µM. The GI50 [14] was 0.0574 µM, the TGI [14] was 13 µM and the GI50 [15] was 0.053 µM. For the same compound, the TGI [15] was 15.7 µM, the GI50 [16] was 0.109 µM and the TGI [16] was greater than 67.1 µM. It also gave a GI50 [17] of 0.161 µM, a TGI [17] of 14.8 µM and a GI50 [18] of 0.0764 µM. For the same compound, the TGI [18] was 17 µM, the GI50 [19] was 0.0358 µM and the TGI [19] was 12.3 µM. The GI50 [20] was 0.204 µM, the TGI [20] was 13.8 µM and the GI50 [21] was 0.0323 µM. For the same compound, the TGI [21] was 12.8 µM, the GI50 [22] was 0.0402 µM and the TGI [22] was 1.69 µM. For the same compound, the GI50 [23] was 0.087 µM, the TGI [23] was 16.2 µM and the GI50 [24] was 0.0911 µM. The TGI [24] was 15.4 µM, the GI50 [25] was 0.145 µM and the TGI [25] was 18 µM. It also gave a GI50 [26] of 0.144 µM, a TGI [26] of 14.1 µM and a GI50 [27] of 0.172 µM. For the same compound, the TGI [27] was greater than 48.4 µM, the GI50 [28] was 3.56 µM and the TGI [28] was 33 µM. The GI50 [29] was 0.0458 µM, the TGI [29] was 3.77 µM and the GI50 [30] was 0.0872 µM. It also gave a TGI [30] of 13.6 µM, a GI50 [31] of 0.276 µM and a TGI [31] of 13.2 µM. For the same compound, the GI50 [32] was 0.0949 µM, the TGI [32] was 48.9 µM and the GI50 [33] was 0.0394 µM. It also gave a TGI [33] greater than 100 µM, a GI50 [34] of 1.46 µM and a TGI [34] of 18.9 µM. For the same compound, the GI50 [35] was 0.0523 µM, the TGI [35] was 11.6 µM and the GI50 [36] was 0.198 µM. The TGI [36] was 11.2 µM, the GI50 [37] was 0.0193 µM and the TGI [37] was 0.231 µM. For the same compound, the GI50 [38] was 0.0508 µM, the TGI [38] was 13.4 µM and the GI50 [39] was 13.6 µM. For the same compound, the TGI [39] was 27.1 µM, the GI50 [40] was 0.161 µM and the TGI [40] was 19.5 µM. The GI50 [41] was 0.0506 µM, the TGI [41] was 0.615 µM and the GI50 [42] was 0.217 µM. It also gave a TGI [42] of 14.6 µM, a GI50 [43] of 11.8 µM and a TGI [43] of 25.1 µM. For the same compound, the GI50 [44] was 0.0496 µM, the TGI [44] was 25.8 µM and the GI50 [45] was 0.0918 µM. The TGI [45] was 10.1 µM, the GI50 [46] was 0.192 µM and the TGI [46] was 12.4 µM. For the same compound, the GI50 [47] was 0.0727 µM, the TGI [47] was 14.3 µM and the GI50 [1] was 0.0272 µM. It also gave a TGI [1] of 0.124 µM, a GI50 [48] of 0.0262 µM and a TGI [48] of 0.0782 µM. It also gave a GI50 [49] of 0.0521 µM, a TGI [49] of 13.1 µM and a GI50 [50] of 0.156 µM. The TGI [50] was 5.77 µM, the GI50 [51] was 0.0388 µM and the TGI [51] was greater than 54.9 µM. The GI50 [52] was 0.0462 µM, the TGI [52] was 0.405 µM and the GI50 [53] was 0.0488 µM. It also gave a TGI [53] of 12.3 µM, a GI50 [54] of 0.0525 µM and a TGI [54] of 18.8 µM. For the same compound, the GI50 [55] was 0.403 µM, the TGI [55] was greater than 100 µM and the GI50 [56] was 10.6 µM. The TGI [56] was 25.8 µM, the GI50 [57] was 0.0474 µM and the TGI [57] was 14.1 µM. The GI50 [58] was 0.0858 µM and the TGI [58] was 19.2 µM.
